Assay results: PMC11554305, “Functional identification of soluble uric acid as an endogenous inhibitor of CD38” (eLife, 2024)
pKi: −log10 of the molar value.

Tests used:
CD38 [1] = molecular target: T1, CD38 (Mus musculus, UniProt P56528); assay: Hydrolase and cyclase activities of human and murine CD38; assay type: biochemical; details: lung tissues from WT mice, OA 0–5 mM
T1 construct: host or cells: recombinant hCD38, cells and mouse tissues
T1 sequence (P56528 1-304): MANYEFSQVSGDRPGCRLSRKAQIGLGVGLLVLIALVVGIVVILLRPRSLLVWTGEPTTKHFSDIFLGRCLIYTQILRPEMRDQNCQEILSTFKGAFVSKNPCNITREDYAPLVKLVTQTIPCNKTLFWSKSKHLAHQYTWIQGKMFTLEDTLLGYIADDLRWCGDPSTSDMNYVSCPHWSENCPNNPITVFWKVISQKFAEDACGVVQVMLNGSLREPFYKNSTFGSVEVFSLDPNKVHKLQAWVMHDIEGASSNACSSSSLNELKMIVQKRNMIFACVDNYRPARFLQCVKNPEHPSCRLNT
Protocol: (§1) The hydrolase activity of CD38 was measured according to a previous report ([de Oliveira et al., 2018]) with minor modifications. CD38 hydrolase activity was measured using 50 μM ε-NAD^+ as a substrate in hydrolase reaction buffer (250 mM sucrose, 40 mM Tris-HCl, pH 7.4). Briefly, cells or tissues were directly homogenized in blank reaction buffer on ice, and recombinant hCD38 was diluted in blank reaction buffer for subsequent assays. The tissue homogenates were centrifuged to collect the supernatant for enzyme assays. The loading volume of enzyme was 4–30 μL, the total volume of the reaction system was 3 mL. To detect enzyme inhibition, except when specified, the ligands were directly dissolved in hydrolase reaction buffer before pH adjustment, after which, the pH was immediately adjusted to 7.4. All reaction buffers, with or without ligands, were freshly prepared before each assay. For measurement of hydrolase activity, 3 mL reaction buffer containing enzyme, ε-NAD^+, and ligands at indicated concentrations was maintained at 37°C with constant stirring.
(§2) The cyclase activity of CD38 was measured as previously described ([Higashida et al., 1999]; [Jin et al., 2007]). CD38 cyclase activity was measured using 60 μM NGD as a substrate in cyclase reaction buffer (100 mM KCl, 10 μM CaCl2, and 50 mM Tris-HCl, pH 6.6). Tissues were cut into pieces and suspended in the buffer (5 mM MgCl2, 10 mM Tris-HCl, pH 7.3) at 4°C for 30 min. Then, the suspension was homogenized on ice, and the supernatant was collected after centrifugation. To collect the crude membrane fractions, the supernatant was centrifuged at 105,000×g for 30 min. The final pellet was resuspended in 10 mM Tris-HCl solution (pH 6.6) for cyclase assay. Homogenates of THP-1 or A549 cells, and recombinant hCD38 were used directly for cyclase assays. The loading volume of enzyme was 4–20 μL, the total volume of reaction system was 3 mL. To detect enzyme inhibition, except when specified, the ligands were directly dissolved in cyclase reaction buffer before pH adjustment, after which, the pH was immediately adjusted to 6.6. All reaction buffers, with or without ligands, were freshly prepared before each assay. For measurement of cyclase activity, 3 mL reaction buffer containing enzyme, NGD, and ligands at indicated concentrations was maintained at 37°C with constant stirring.
(§3) The reaction buffer for hydrolase or cyclase assays was excited at 300 nm, and fluorescence emission was measured every second at 410 nm by Shimazu RF-6000 spectrofluorometer. Hydrolase or cyclase activity was calculated from the linear portion of the time course by fitting a linear function to the data points recorded within 5 min.
(§4) Guanosine was dissolved in DMSO and diluted in the reaction buffer for subsequent assays.
(§5) For reversibility test, recombinant hCD38 was pre-incubated for 30 min in four conditions: (1) control reaction buffer; (2) in the presence of 100 μM substrate (ε-NAD^+ or NGD); (3) 500 μM sUA; (4) both substrate and sUA. Subsequently, the enzyme was diluted 100-fold in reaction buffer in the presence or absence of 500 μM sUA for activity assays using ε-NAD^+ or NGD. Naïve THP-1 and A549 cells were incubated with RPMI-1640 medium in the presence or absence of 500 μM sUA for 2 hr. The cells were collected and homogenized in the reaction buffer on ice with or without 500 μM sUA, samples were then diluted 100-fold in reaction buffer with or without 500 μM sUA for enzyme assay. Control group was not treated with sUA in all steps; sUA group was treated with sUA in each step; sUA release group was treated with sUA prior to dilution in sUA-free buffer for enzyme assays.

uricase = molecular target: uricase; set-up: method as in Fridovich, 1965; details: ref Fridovich, 1965; cited from earlier work
[2] = molecular target: T2, nicotinamide phosphoribosyltransferase (NAMPT) (Homo sapiens, UniProt P43490); assay: NAMPT activity (colorimetric kit); assay type: biochemical; details: Figure 3—figure supplement 2A
T2 construct: purchased MBL CY-1251V2
Protocol: The activities of NAMPT and PARP were measured using commercial kits, HT Universal Colorimetric PARP Assay Kit, and CycLex NAMPT Colorimetric Assay Kit Ver.2. The solutions of ligands were freshly prepared (pH was adjusted to 7.4) and were immediately used for enzyme assays.

[3] = molecular target: T3, recombinant human CD38 (hCD38) (Homo sapiens, UniProt P28907); assay: CD38 hydrolase activity, recombinant hCD38 (ε-NAD+ substrate); assay type: biochemical; details: sUA 0–500 μM, Figure 1B
T3 construct: the commercial recombinant hCD38 without a transmembrane region was partially used in this study; purchased Sino Biological 10818-H08H
T3 sequence (P28907 43-300 limits assumed): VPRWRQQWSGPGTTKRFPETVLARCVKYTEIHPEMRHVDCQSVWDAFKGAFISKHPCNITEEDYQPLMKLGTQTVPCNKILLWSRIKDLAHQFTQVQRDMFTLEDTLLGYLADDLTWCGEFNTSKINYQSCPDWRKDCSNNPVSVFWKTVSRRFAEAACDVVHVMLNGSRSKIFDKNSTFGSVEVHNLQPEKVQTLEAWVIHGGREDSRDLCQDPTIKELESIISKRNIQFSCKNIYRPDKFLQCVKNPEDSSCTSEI
Protocol: as §1, §3

CD38 [4] = molecular target: T4, CD38 (Homo sapiens, UniProt P28907); assay: Hydrolase and cyclase activities of human and murine CD38; assay type: biochemical
T4 construct: host or cells: recombinant hCD38, cells and mouse tissues
T4 sequence (P28907 43-300): T3 sequence (P28907 43-300 limits assumed)
Protocol: as §1, §2, §3, §4, §5

T2 sequence (P43490 whole entry): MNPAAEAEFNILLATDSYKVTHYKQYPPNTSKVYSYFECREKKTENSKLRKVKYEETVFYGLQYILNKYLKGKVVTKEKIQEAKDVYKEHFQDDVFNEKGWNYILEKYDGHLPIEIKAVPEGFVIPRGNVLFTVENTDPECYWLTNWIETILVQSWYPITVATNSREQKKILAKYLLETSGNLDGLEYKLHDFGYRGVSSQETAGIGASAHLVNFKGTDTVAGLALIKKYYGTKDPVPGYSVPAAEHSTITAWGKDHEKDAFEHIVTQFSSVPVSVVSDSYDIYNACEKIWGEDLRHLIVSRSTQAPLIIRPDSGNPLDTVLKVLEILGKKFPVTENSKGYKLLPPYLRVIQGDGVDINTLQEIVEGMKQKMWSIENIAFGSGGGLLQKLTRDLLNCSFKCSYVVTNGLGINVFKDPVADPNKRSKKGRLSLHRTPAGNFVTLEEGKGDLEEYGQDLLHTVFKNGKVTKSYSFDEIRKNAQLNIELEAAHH

| Compound | IC50 for CD38 (in words) (CD38 [1]) | Ki for uricase (uricase) | Effect on NAMPT activity [2] | pKi [3] | Reversibility of the inhibitory effects on CD38 (CD38 [4]; 30 min pre-incubation with 500 μM sUA, 100-fold dilution, hCD38, A549, THP-1) | Mode of inhibition of CD38 (CD38 [4]; different substrate concentrations, Figure 1C, D) |
| --- | --- | --- | --- | --- | --- | --- |
| O=C(O)c1nc(=O)[nH]c(=O)[nH]1 [OA, oxonic acid, reference compound] | millimolar range | nanomolar range | – | – | – | – |
| O=c1[nH]c(=O)c2[nH]c(=O)[nH]c2[nH]1 [sUA, uric acid] | – | – | without affecting the activities | 4.18 | reversible | non-competitive inhibitor |
